Experimental data from patent publication US5342947A, “Preparation of water soluble camptothecin derivatives” (Glaxo Inc., priority 1992, dated 1994).
Read-outs that look alike come from different tables or passages of the source.

Columns and labels:
[1] = target: T1, topoisomerase Type I (Bos taurus, UniProt F1MN93); experiment: Cleavable Complex in vitro Assay (topoisomerase Type I inhibitory activity); assay type: biochemical
T1 sequence (F1MN93 1-767): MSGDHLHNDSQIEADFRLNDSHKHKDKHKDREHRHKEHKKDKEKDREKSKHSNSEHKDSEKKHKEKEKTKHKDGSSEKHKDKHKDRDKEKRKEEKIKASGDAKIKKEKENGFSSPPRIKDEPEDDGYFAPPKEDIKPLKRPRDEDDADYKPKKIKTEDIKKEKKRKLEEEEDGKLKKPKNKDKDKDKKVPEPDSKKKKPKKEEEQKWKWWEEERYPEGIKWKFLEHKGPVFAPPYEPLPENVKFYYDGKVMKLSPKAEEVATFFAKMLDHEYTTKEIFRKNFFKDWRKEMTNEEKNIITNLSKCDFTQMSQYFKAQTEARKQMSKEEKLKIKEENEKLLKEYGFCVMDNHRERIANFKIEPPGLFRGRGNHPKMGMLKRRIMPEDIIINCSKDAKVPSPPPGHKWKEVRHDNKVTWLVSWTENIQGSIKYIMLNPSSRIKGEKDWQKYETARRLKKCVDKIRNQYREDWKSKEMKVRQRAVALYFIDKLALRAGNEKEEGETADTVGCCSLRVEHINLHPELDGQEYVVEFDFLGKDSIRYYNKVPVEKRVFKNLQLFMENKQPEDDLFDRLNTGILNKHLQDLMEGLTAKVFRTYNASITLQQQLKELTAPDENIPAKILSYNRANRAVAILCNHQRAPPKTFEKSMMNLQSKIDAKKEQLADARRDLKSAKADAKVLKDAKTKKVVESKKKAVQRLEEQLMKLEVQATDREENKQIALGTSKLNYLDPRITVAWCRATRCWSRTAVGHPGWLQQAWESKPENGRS
Description: This assay performed according to the method described in Hsiang, Y. et al., J. Biol. Chem., 260:14873-14878 (1985), correlates well with in vivo anti-tumor activity of topoisomerase inhibitors in animal models of cancer, e.g., camptothecin and its analogs. See Hsiang et al., Cancer Research, 49:4385-4389 (1989) and Jaxel et al., Cancer Research, 49:1465-1469 (1989).
The term "IC50 " means the concentration of a compound of formula (I) at which 50% of the DNA substrate has been captured by topoisomerase I.

[2] = in words, background; cited from earlier work
[3] = Wani et al., J. Med. Chem. 29, 2358 (1986) and 30, 2317 (1987); cited from earlier work
[4] = test system: HT-29 human colon tumor; experiment: Human Colorectal Adenocarcinoma HT-29 Xenograft in vivo Assay; set-up: species or system human tumor xenograft in female NU/NU mice; details: for tumor wt day 50 / tumor wt day 14: s.c. twice a week for 5 weeks; for effect on tumor (stasis / regression): after 5 weeks of dosing, day 50 vs day 14, ratio 1 = stasis, <1 = regression
Description: Female NU/NU mice weighing 21±2 g, are used for this modified version of the test described by B. C. Giovanella, et al., Science, 246 1046 (1989). Control and test animals are injected subcutaneously in the sub-scapular region with a suspension of 10^6 viable HT-29 human colon tumor cells on day 0. Tumors are allowed to grow for 2 weeks prior to drug administration. For each drug, several doses are chosen based on its in vitro activity against topoisomerase I. Each dose level group contains 8 animals. The test compounds are prepared in either 0.1M acetate buffer, pH 5 (vehicle "a") or 87.5% phosphate buffered saline, 12.375% dimethylsulfoxide, and 0.125% Tween 80 (trademark of ICI America for polyoxyethylenesorbitan monooleate) (vehicle "b") and are administered subcutaneously twice a week for 5 weeks beginning on day 14. Doses are given on a mg/kg basis according to the mean body weight for each cage.
Tumor weight is calculated from two perpendicular caliper measurements of the tumor using the formula, tumor weight=length×width^2 […] in millimeters. For each animal, tumor weight is monitored over the course of the experiment. For each group, the results are expressed as the ratio of the mean tumor weight immediately after 5 weeks of treatment (day 50) divided by the mean tumor weight immediately before treatment (day 14). […] The criterion for antitumor activity is at least 50% inhibition of tumor growth after 5 weeks of dosing (day 50), giving a ratio of less than or equal to […].

[5] = test system: certain solid tumors; details: laboratory animals; cited from earlier work
[6] = test system: leukemia (L-1210); details: laboratory animals; cited from earlier work
[7] = Cleavable Complex Assay, read-out: Relative IC50 (concentration at which 50% of the DNA substrate has been captured by topoisomerase I)

CCC1(O)C(=O)OCc2c1cc1n(c2=O)Cc2c-1nc1cc3c(cc1c2CN(C)C)OCO3 (racemic) [Example 1]
IC50 ([1]; read-out: Relative IC50 (concentration at which 50% of the DNA substrate has been captured by topoisomerase I), Cleavable Complex Assay): < 0.5 µM

CCC1(O)C(=O)OCc2c1cc1n(c2=O)Cc2c-1nc1cc3c(cc1c2CN1CCOCC1)OCCO3 (racemic) [Example 5, 7-Morpholinomethylene-10,11-ethylenedioxy-20(R,S)-camptothecin]
IC50 [1]: < 0.5 µM

CCC1(O)C(=O)OCc2c1cc1n(c2=O)Cc2c-1nc1cc3c(cc1c2CN1CCCC1)OCCO3 (racemic) [Example 7, 7-Pyrrolidinomethylene-10,11-ethylenedioxy-20(R,S)-camptothecin]
IC50 [1]: 1 to 2 µM

CCC1(O)C(=O)OCc2c1cc1n(c2=O)Cc2c-1nc1cc3c(cc1c2CN1CCCCC1)OCO3 (racemic) [Example 8, 7-Piperidinomethylene-10,11-methylenedioxy-20(R,S)-camptothecin]
IC50 [1]: > 2 µM

CCC1(O)C(=O)OCc2c1cc1n(c2=O)Cc2c-1nc1cc3c(cc1c2CN1CCCCC1)OCCO3 (racemic) [Example 9, 7-Piperidinomethylene-10, 11-ethylenedioxy-20(R,S)-camptothecin]
IC50 [1]: 0.5 to 1 µM

CCC1(O)C(=O)OCc2c1cc1n(c2=O)Cc2c-1nc1cc3c(cc1c2CN1CCN(C)CC1)OCCO3 (racemic) [Example 10, 7-(4-methylpiperazinomethylene)-10, 11-ethylenedioxy-20(R,S)-camptothecin]
IC50 [1, 7]: 0.5 to 1 µM

CCN(CC)Cc1c2c(nc3cc4c(cc13)OCCO4)-c1cc3c(c(=O)n1C2)COC(=O)C3(O)CC (racemic) [Example 13, 7-Diethylaminomethylene-10, 11-ethylenedioxy-20(R,S)-camptothecin]
IC50 [1]: 0.5 to 1 µM

CCC1(O)C(=O)OCc2c1cc1n(c2=O)Cc2c-1nc1cc3c(cc1c2CN(C)CCO)OCO3 (racemic) [Example 15, 7-N-Methylethanolaminomethylene-10, 11-methylenedioxy-20(R,S)-camptothecin]
IC50 [1]: 1 to 2 µM

CCC1(O)C(=O)OCc2c1cc1n(c2=O)Cc2c-1nc1cc3c(cc1c2CN(C)CCO)OCCO3 (racemic) [Example 16, 7-N-Methylethanolaminomethylene-10, 11-ethylenedioxy-20(R,S)-camptothecin]
IC50 [1]: 1 to 2 µM

CCC1(O)C(=O)OCc2c1cc1n(c2=O)Cc2c-1nc1cc3c(cc1c2CN(CCO)CCO)OCCO3 (racemic) [Example 17, 7-Diethanolaminomethylene-10, 11-ethylenedioxy-20(R,S)-camptothecin]
IC50 [1]: < 0.5 µM

CCC1(O)C(=O)OCc2c1cc1n(c2=O)Cc2c-1nc1cc3c(cc1c2CN1CCC1)OCO3 (racemic) [Example 19, 7-Azetidinomethylene-10, 11-methylenedioxy-20(R,S)-camptothecin]
IC50 [1]: 1 to 2 µM

CCC1(O)C(=O)OCc2c1cc1n(c2=O)Cc2cc3cc4c(cc3nc2-1)OCO4 (centres unmarked) [10, 11-methylenedioxycamptothecin]
solubility in water / physiologically compatible, aqueous media [2]: as poor as camptothecin | potency relative to unsubstituted camptothecin [3]: more potent than unsubstituted camptothecin

CC[C@@]1(O)C(=O)OCc2c1cc1n(c2=O)Cc2c-1nc1cc3c(cc1c2CN(C)C)OCO3 [Example 2, 7-Dimethylaminomethylene-10, 11-methylenedioxy-20(S)-camptothecin]
tumor wt day 50 / tumor wt day 14 ([4]; 0.8 mg/kg (optimal dose), vehicle b (PBS/DMSO/Tween 80), vehicle control 21.8): 1.8 | IC50 [1]: < 0.5 µM

CC[C@@]1(O)C(=O)OCc2c1cc1n(c2=O)Cc2c-1nc1cc3c(cc1c2CN(C)C)OCCO3 [Example 4, 7-Dimethylaminomethylene-10, 11-ethylenedioxy-20(S)-camptothecin]
tumor wt day 50 / tumor wt day 14 ([4]; 7.0 mg/kg (optimal dose), vehicle a (0.1M acetate buffer, pH 5), vehicle control 20.0): 1.3 | tumor wt day 50 / tumor wt day 14 ([4]; 7.0 mg/kg (optimal dose), vehicle b (PBS/DMSO/Tween 80), vehicle control 21.8): 1.0 | effect on tumor (stasis / regression) [4]: tumor stasis | IC50 [1]: 0.5 to 1 µM

CC[C@@]1(O)C(=O)OCc2c1cc1n(c2=O)Cc2c-1nc1cc3c(cc1c2CN1CCOCC1)OCCO3 [Example 6, 7-Morpholinomethylene-10,11-ethylenedioxy-20(S)-camptothecin]
tumor wt day 50 / tumor wt day 14 ([4]; 1.0 mg/kg (optimal dose), vehicle b (PBS/DMSO/Tween 80), vehicle control 21.8): 1.0 | effect on tumor (stasis / regression) [4]: tumor stasis | IC50 [1]: < 0.5 µM

CC[C@@]1(O)C(=O)OCc2c1cc1n(c2=O)Cc2c-1nc1cc3c(cc1c2CN1CCN(C)CC1)OCCO3 [Example 11, 7-(4-methylpiperazinomethylene)-10, 11-ethylenedioxy-20(S)-camptothecin]
tumor wt day 50 / tumor wt day 14 ([4]; 9.0 mg/kg (optimal dose), vehicle a (0.1M acetate buffer, pH 5), vehicle control 20.0): 0.6 | effect on tumor (stasis / regression) [4]: tumor regression | IC50 [1, 7]: < 0.5 µM

CCN(CC)Cc1c2c(nc3cc4c(cc13)OCCO4)-c1cc3c(c(=O)n1C2)COC(=O)[C@]3(O)CC [Example 14, 7-Diethylaminomethylene-10, 11-ethylenedioxy-20(S)-camptothecin]
tumor wt day 50 / tumor wt day 14 ([4]; 2.0 mg/kg (optimal dose), vehicle a (0.1M acetate buffer, pH 5), vehicle control 20.0): 2.0

CC[C@@]1(O)C(=O)OCc2c1cc1n(c2=O)Cc2c-1nc1cc3c(cc1c2CN1CCC1)OCO3 [Example 20, 7-Azetidinomethylene-10, 11-methylenedioxy-20(S)-camptothecin]
tumor wt day 50 / tumor wt day 14 ([4]; 1.5 mg/kg (optimal dose), vehicle a (0.1M acetate buffer, pH 5), vehicle control 20.0): 1.5

CC[C@@]1(O)C(=O)OCc2c1cc1n(c2=O)Cc2c-1nc1cc3c(cc1c2CN1CCC1)OCCO3 [Example 22, 7-Azetidinomethylene-10, 11-ethylenedioxy-20(S)-camptothecin]
tumor wt day 50 / tumor wt day 14 ([4]; 12.0 mg/kg (optimal dose), vehicle a (0.1M acetate buffer, pH 5), vehicle control 20.0): 1.6

CC[C@@]1(O)C(=O)OCc2c1cc1n(c2=O)Cc2c-1nc1cc3c(cc1c2CN1CCN(C)CC1)OCO3 [Example 23, 7-(4-Methylpiperazinomethylene)-10, 11-methylenedioxy-20(S)-camptothecin]
tumor wt day 50 / tumor wt day 14 ([4]; 3.0 mg/kg (optimal dose), vehicle a (0.1M acetate buffer, pH 5), vehicle control 20.0): 0.5 | effect on tumor (stasis / regression) [4]: tumor regression

CC[C@@]1(O)C(=O)OCc2c1cc1n(c2=O)Cc2cc3ccccc3nc2-1 [camptothecin, Camptothecin]
effectiveness in treatment of certain solid tumors [5]: effective | effectiveness in treatment of leukemia (L-1210) [6]: effective
